What was measured:
Format in all cases: biochemical
[1] = target: T1, AtCytAPX1 (Arabidopsis thaliana, UniProt Q05431); assay: APX activity assay, in-gel and in solution; conditions: H2O2 co-substrate
T1 construct: gene APX1; ~27 kDa; MBP fusion from E. coli, MBP removed by factor Xa
T1 sequence (Q05431 1-250): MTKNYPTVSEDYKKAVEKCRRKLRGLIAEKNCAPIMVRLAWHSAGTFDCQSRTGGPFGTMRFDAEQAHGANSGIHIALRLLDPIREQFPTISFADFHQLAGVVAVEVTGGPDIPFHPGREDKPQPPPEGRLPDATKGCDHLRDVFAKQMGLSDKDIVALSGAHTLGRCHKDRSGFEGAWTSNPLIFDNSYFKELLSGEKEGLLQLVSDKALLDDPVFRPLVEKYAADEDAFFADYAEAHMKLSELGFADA

[2] = target: T2, OgCytAPX1 (Oncidium cytosolic ascorbate peroxidase 1) (Oncidium hybrid cultivar, UniProt B8XF08); assay: enzyme kinetics, Lineweaver-Burk; conditions: H2O2 co-substrate; APX activity
T2 construct: full length, 250 residues, ~27 kDa; cloned from pseudobulb mRNA; MBP fusion (pMAL-c5x) from E. coli BL21, MBP removed by factor Xa

[3] = target: T3, CytAPX1 from G. max (Gm) (Glycine max, UniProt Q43758); assay: APX activity assay, in-gel and in solution; conditions: H2O2 co-substrate
T3 construct: gene apx1; recombinant from E. coli, purified
T3 sequence (Q43758 1-250): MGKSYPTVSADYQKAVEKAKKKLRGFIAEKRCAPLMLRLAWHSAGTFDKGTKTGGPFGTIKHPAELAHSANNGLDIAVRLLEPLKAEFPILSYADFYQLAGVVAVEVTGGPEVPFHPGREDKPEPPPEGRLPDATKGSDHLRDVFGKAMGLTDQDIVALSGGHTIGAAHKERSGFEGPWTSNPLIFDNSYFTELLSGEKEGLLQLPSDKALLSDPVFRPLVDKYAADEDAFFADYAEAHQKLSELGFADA

[4] = target: T4, CytAPX1 from O. sativa (Os) (Oryza sativa, UniProt Q10N21); assay: APX activity assay, in-gel and in solution; conditions: H2O2 co-substrate
T4 construct: gene APX1; recombinant from E. coli, purified
T4 sequence (Q10N21 2-250): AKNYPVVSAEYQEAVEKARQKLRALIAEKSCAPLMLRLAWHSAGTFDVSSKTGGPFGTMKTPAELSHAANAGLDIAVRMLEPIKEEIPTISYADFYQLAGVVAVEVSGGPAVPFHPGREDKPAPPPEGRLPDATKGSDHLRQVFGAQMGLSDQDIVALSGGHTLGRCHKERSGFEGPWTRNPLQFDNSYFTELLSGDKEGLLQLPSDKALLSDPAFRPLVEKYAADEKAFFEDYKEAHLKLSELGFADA

T2 sequence (B8XF08 entry or part of it): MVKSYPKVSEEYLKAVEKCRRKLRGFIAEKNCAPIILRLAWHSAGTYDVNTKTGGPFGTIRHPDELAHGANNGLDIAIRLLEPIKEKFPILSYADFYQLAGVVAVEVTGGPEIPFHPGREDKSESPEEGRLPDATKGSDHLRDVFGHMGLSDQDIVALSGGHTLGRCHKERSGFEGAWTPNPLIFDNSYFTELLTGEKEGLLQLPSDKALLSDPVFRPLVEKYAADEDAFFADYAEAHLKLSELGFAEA

O=C1O[C@H]([C@@H](O)CO)C(O)=C1O [AsA]
APX activity assay, in-gel and in solution [1]: AtCytAPX1 displayed only APX activity | Km [2]: 616 µM | APX activity assay, in-gel and in solution [3]: Recombinant proteins from G. max, O. sativa, and Z. mays displayed both AsA and GSH | APX activity assay, in-gel and in solution [4]: Recombinant proteins from G. max, O. sativa, and Z. mays displayed both AsA and GSH

Source: publication PMC6542772, “Plant Cytosolic Ascorbate Peroxidase with Dual Catalytic Activity Modulates Abiotic Stress Tolerances” (iScience, 2019)
